Assay results: ChEMBL document CHEMBL5107949, “Design, synthesis, and antibacterial activity of N-(trifluoromethyl)phenyl substituted pyrazole derivatives” (RSC Med Chem, 2021)
≈ marks a conversion by molar mass, not a printed value.

Legend:
Assay type in all cases: functional
Staphylococcus aureus [1] = assay: Antibacterial activity against antibiotic susceptible Staphylococcus aureus ATCC 25923 assessed as inhibition of bacterial growth by CLSI protocol based broth microdilution method
Staphylococcus aureus [2] = assay: Antibacterial activity against antibiotic resistant Staphylococcus aureus ATCC 33591 assessed as inhibition of bacterial growth by CLSI protocol based broth microdilution method
Staphylococcus aureus [3] = assay: Antibacterial activity against antibiotic resistant Staphylococcus aureus ATCC 33592 assessed as inhibition of bacterial growth by CLSI protocol based broth microdilution method
Staphylococcus aureus [4] = assay: Antibacterial activity against antibiotic resistant Staphylococcus aureus BAA-2312 assessed as inhibition of bacterial growth by CLSI protocol based broth microdilution method
Staphylococcus aureus [5] = assay: Antibacterial activity against antibiotic resistant Staphylococcus aureus ATCC 700699 assessed as inhibition of bacterial growth by CLSI protocol based broth microdilution method
[6] = test system: Staphylococcus epidermidis; assay: Antibacterial activity against antibiotic resistant Staphylococcus epidermidis ATCC 700296 assessed as inhibition of bacterial growth by CLSI protocol based broth microdilution method
Bacillus subtilis = assay: Antibacterial activity against antibiotic resistant Bacillus subtilis ATCC 6623 assessed as inhibition of bacterial growth by CLSI protocol based broth microdilution method
Enterococcus faecalis = assay: Antibacterial activity against antibiotic susceptible Enterococcus faecalis ATCC 29212 assessed as inhibition of bacterial growth by CLSI protocol based broth microdilution method
Enterococcus faecium = assay: Antibacterial activity against vancomycin resistant Enterococcus faecium ATCC 700221 assessed as inhibition of bacterial growth by CLSI protocol based broth microdilution method

| SMILES | MIC (Staphylococcus aureus [1]) [µg/mL] | MIC (Staphylococcus aureus [2]) [µg/mL] | MIC (Staphylococcus aureus [3]) [µg/mL] | MIC (Staphylococcus aureus [4]) [µg/mL] | MIC (Staphylococcus aureus [5]) [µg/mL] | MIC [6] [µg/mL] | MIC (Bacillus subtilis) [µg/mL] | MIC (Enterococcus faecalis) [µg/mL] | MIC (Enterococcus faecium) [µg/mL] |
| --- | --- | --- | --- | --- | --- | --- | --- | --- | --- |
| CSc1ccc(NCc2cn(-c3ccc(C(F)(F)F)cc3)nc2-c2ccc(C(=O)O)cc2)cc1 | 12.5 (≈ 25.9 µM) | 25 (≈ 51.7 µM) | 25 (≈ 51.7 µM) | 25 (≈ 51.7 µM) | 12.5 (≈ 25.9 µM) | 50 (≈ 103 µM) | 25 (≈ 51.7 µM) | 25 (≈ 51.7 µM) | 12.5 (≈ 25.9 µM) |
| O=C(O)c1ccc(-c2nn(-c3ccc(C(F)(F)F)cc3)cc2CNc2ccc(Cl)cc2)cc1 | 6.25 (≈ 13.2 µM) | 6.25 (≈ 13.2 µM) | 6.25 (≈ 13.2 µM) | 12.5 (≈ 26.5 µM) | 6.25 (≈ 13.2 µM) | 12.5 (≈ 26.5 µM) | 6.25 (≈ 13.2 µM) | 12.5 (≈ 26.5 µM) | 6.25 (≈ 13.2 µM) |
| O=C(O)c1ccc(-c2nn(-c3ccc(C(F)(F)F)cc3)cc2CNc2ccc(F)cc2)cc1 | 25 (≈ 54.9 µM) | 25 (≈ 54.9 µM) | 25 (≈ 54.9 µM) | 25 (≈ 54.9 µM) | 12.5 (≈ 27.4 µM) | 50 (≈ 110 µM) | 25 (≈ 54.9 µM) | – | 25 (≈ 54.9 µM) |
| O=C(O)c1ccc(-c2nn(-c3ccc(C(F)(F)F)cc3)cc2CNc2cccc(F)c2)cc1 | 25 (≈ 54.9 µM) | 25 (≈ 54.9 µM) | 25 (≈ 54.9 µM) | 25 (≈ 54.9 µM) | 12.5 (≈ 27.4 µM) | 25 (≈ 54.9 µM) | 12.5 (≈ 27.4 µM) | 25 (≈ 54.9 µM) | 12.5 (≈ 27.4 µM) |
| COc1ccc(NCc2cn(-c3ccc(C(F)(F)F)cc3)nc2-c2ccc(C(=O)O)cc2)cc1C(F)(F)F | 12.5 (≈ 23.3 µM) | 25 (≈ 46.7 µM) | 12.5 (≈ 23.3 µM) | 12.5 (≈ 23.3 µM) | 6.25 (≈ 11.7 µM) | 25 (≈ 46.7 µM) | 6.25 (≈ 11.7 µM) | 25 (≈ 46.7 µM) | 12.5 (≈ 23.3 µM) |
| O=C(O)c1ccc(-c2nn(-c3ccc(C(F)(F)F)cc3)cc2CNc2cccc(Br)c2)cc1 | 3.12 (≈ 6.04 µM) | 3.12 (≈ 6.04 µM) | 6.25 (≈ 12.1 µM) | 6.25 (≈ 12.1 µM) | 3.12 (≈ 6.04 µM) | 12.5 (≈ 24.2 µM) | 6.25 (≈ 12.1 µM) | 12.5 (≈ 24.2 µM) | 6.25 (≈ 12.1 µM) |
| O=C(O)c1ccc(-c2nn(-c3ccc(C(F)(F)F)cc3)cc2CNc2ccc(Br)cc2)cc1 | 6.25 (≈ 12.1 µM) | 6.25 (≈ 12.1 µM) | 3.12 (≈ 6.04 µM) | 6.25 (≈ 12.1 µM) | 3.12 (≈ 6.04 µM) | 12.5 (≈ 24.2 µM) | 3.12 (≈ 6.04 µM) | 6.25 (≈ 12.1 µM) | 6.25 (≈ 12.1 µM) |
| O=C(O)c1ccc(-c2nn(-c3ccc(C(F)(F)F)cc3)cc2CNc2ccccc2)cc1 | 25 (≈ 57.2 µM) | 50 (≈ 114 µM) | 25 (≈ 57.2 µM) | 25 (≈ 57.2 µM) | 25 (≈ 57.2 µM) | 25 (≈ 57.2 µM) | 25 (≈ 57.2 µM) | – | 25 (≈ 57.2 µM) |
| O=C(O)c1ccc(-c2nn(-c3ccc(C(F)(F)F)cc3)cc2CNc2ccc(C(F)(F)F)cc2)cc1 | 12.5 (≈ 24.7 µM) | 12.5 (≈ 24.7 µM) | 6.25 (≈ 12.4 µM) | 12.5 (≈ 24.7 µM) | 3.12 (≈ 6.17 µM) | 12.5 (≈ 24.7 µM) | 6.25 (≈ 12.4 µM) | 25 (≈ 49.5 µM) | 12.5 (≈ 24.7 µM) |
| O=C(O)c1ccc(-c2nn(-c3ccc(C(F)(F)F)cc3)cc2CNc2ccc(F)c(F)c2)cc1 | 12.5 (≈ 26.4 µM) | 25 (≈ 52.8 µM) | 6.25 (≈ 13.2 µM) | 25 (≈ 52.8 µM) | 6.25 (≈ 13.2 µM) | 25 (≈ 52.8 µM) | 12.5 (≈ 26.4 µM) | 25 (≈ 52.8 µM) | 12.5 (≈ 26.4 µM) |
| O=C(O)c1ccc(-c2nn(-c3ccc(C(F)(F)F)cc3)cc2CNc2ccc(F)c([N+](=O)[O-])c2)cc1 | 12.5 (≈ 25 µM) | 25 (≈ 50 µM) | 12.5 (≈ 25 µM) | 25 (≈ 50 µM) | 6.25 (≈ 12.5 µM) | 25 (≈ 50 µM) | 12.5 (≈ 25 µM) | – | – |
| COc1ccc(NCc2cn(-c3ccc(C(F)(F)F)cc3)nc2-c2ccc(C(=O)O)cc2)cc1 | 50 (≈ 107 µM) | – | 25 (≈ 53.5 µM) | – | 25 (≈ 53.5 µM) | – | 25 (≈ 53.5 µM) | – | – |
| CN1CCN(c2ccc(NCc3cn(-c4ccc(C(F)(F)F)cc4)nc3-c3ccc(C(=O)O)cc3)cc2C(F)(F)F)CC1 | 25 (≈ 41.4 µM) | 50 (≈ 82.8 µM) | 12.5 (≈ 20.7 µM) | 25 (≈ 41.4 µM) | 12.5 (≈ 20.7 µM) | – | 25 (≈ 41.4 µM) | 25 (≈ 41.4 µM) | 25 (≈ 41.4 µM) |
